These are literature values, as cited in US6071521A, “Pharmaceutical composition having an antitumor activity and a process for preparation thereof” (priority 1989, dated 2000).

The conditions of this series: water, alcohol, chloroform, and chlorinated ethylene.

Take `C=C1C=CC(=O)O1` [protoanemonin, Protoanemonin]: the solubility entry was “dissolved in water, alcohol, chloroform, and chlorinated ethylene”.
